Measured values as given in patent US10077261B2, “Imidazolin-5-one derivative useful as FASN inhibitors for the treatment of cancer” (Janssen Pharmaceutica NV, priority 2012, dated 2018).

Target: T1, hFASN enzyme (full length) (Homo sapiens, UniProt P49327)
T1 construct: 10 μL hFASN enzyme (full length, 300 ng, purified in house); made in house
Experiment: Fatty Acid Synthase (FASN) inhibition scintillation proximity assay
Assay type: biochemical
Details: for inhibition at 10 µM: read-out: Human FASN % inhibition @ 10 μM, 10 μM test compound; for IC50: read-out: Human FASN pIC50 (converted)
Description: In this assay, inhibition of FASN activity is measured using ^3H-acetyl-CoA and malonyl-CoA as substrates. ^3H-Acetyl CoA is converted to ^3H-palmitate through a series of reactions by the FASN protein, which contains 7 functional domains and carries out 7 enzymatic reactions to ultimately produce ^3H-palmitate. The assay principle is based upon the fact that ^3H-acetyl-CoA is hydrophilic and the end product, ^3H-palmitate is hydrophobic.
10 μL assay buffer (100 mM KH2PO4 pH 7.5, 1 mM DTT) (20 μL in blanks) was added to a 384-well white optiplate plate (Perkin Elmer). 0.9 μL test compound (at concentrations of 30 μM, 10 μM, 3 μM, 1 μM, 0.30 μM, 0.10 μM, 0.03 μM and 0.01 μM)/DMSO and 10 μL hFASN enzyme (full length, 300 ng, purified in house) or 10 μL assay buffer was added to the wells. […] The reaction was stopped by adding 20 μL Streptavidin coupled imaging beads (25 mg/ml). After incubation for 30 minutes at room temperature in the dark, the 384 well plate was centrifuged at 1500 rpm for 3 minutes and was measured after at least 24 hrs by the LEADseeker™, measuring emission using a 610±20 nm pass filter.
where mLC and mHC were the means of the low control wells and high control wells on the plate, after manual exclusion of outliers. A plot of Controlmin versus test compound concentration was fitted to a 4-parameter logistic curve using a non-linear least squares regression method.

T1 sequence (P49327 whole entry): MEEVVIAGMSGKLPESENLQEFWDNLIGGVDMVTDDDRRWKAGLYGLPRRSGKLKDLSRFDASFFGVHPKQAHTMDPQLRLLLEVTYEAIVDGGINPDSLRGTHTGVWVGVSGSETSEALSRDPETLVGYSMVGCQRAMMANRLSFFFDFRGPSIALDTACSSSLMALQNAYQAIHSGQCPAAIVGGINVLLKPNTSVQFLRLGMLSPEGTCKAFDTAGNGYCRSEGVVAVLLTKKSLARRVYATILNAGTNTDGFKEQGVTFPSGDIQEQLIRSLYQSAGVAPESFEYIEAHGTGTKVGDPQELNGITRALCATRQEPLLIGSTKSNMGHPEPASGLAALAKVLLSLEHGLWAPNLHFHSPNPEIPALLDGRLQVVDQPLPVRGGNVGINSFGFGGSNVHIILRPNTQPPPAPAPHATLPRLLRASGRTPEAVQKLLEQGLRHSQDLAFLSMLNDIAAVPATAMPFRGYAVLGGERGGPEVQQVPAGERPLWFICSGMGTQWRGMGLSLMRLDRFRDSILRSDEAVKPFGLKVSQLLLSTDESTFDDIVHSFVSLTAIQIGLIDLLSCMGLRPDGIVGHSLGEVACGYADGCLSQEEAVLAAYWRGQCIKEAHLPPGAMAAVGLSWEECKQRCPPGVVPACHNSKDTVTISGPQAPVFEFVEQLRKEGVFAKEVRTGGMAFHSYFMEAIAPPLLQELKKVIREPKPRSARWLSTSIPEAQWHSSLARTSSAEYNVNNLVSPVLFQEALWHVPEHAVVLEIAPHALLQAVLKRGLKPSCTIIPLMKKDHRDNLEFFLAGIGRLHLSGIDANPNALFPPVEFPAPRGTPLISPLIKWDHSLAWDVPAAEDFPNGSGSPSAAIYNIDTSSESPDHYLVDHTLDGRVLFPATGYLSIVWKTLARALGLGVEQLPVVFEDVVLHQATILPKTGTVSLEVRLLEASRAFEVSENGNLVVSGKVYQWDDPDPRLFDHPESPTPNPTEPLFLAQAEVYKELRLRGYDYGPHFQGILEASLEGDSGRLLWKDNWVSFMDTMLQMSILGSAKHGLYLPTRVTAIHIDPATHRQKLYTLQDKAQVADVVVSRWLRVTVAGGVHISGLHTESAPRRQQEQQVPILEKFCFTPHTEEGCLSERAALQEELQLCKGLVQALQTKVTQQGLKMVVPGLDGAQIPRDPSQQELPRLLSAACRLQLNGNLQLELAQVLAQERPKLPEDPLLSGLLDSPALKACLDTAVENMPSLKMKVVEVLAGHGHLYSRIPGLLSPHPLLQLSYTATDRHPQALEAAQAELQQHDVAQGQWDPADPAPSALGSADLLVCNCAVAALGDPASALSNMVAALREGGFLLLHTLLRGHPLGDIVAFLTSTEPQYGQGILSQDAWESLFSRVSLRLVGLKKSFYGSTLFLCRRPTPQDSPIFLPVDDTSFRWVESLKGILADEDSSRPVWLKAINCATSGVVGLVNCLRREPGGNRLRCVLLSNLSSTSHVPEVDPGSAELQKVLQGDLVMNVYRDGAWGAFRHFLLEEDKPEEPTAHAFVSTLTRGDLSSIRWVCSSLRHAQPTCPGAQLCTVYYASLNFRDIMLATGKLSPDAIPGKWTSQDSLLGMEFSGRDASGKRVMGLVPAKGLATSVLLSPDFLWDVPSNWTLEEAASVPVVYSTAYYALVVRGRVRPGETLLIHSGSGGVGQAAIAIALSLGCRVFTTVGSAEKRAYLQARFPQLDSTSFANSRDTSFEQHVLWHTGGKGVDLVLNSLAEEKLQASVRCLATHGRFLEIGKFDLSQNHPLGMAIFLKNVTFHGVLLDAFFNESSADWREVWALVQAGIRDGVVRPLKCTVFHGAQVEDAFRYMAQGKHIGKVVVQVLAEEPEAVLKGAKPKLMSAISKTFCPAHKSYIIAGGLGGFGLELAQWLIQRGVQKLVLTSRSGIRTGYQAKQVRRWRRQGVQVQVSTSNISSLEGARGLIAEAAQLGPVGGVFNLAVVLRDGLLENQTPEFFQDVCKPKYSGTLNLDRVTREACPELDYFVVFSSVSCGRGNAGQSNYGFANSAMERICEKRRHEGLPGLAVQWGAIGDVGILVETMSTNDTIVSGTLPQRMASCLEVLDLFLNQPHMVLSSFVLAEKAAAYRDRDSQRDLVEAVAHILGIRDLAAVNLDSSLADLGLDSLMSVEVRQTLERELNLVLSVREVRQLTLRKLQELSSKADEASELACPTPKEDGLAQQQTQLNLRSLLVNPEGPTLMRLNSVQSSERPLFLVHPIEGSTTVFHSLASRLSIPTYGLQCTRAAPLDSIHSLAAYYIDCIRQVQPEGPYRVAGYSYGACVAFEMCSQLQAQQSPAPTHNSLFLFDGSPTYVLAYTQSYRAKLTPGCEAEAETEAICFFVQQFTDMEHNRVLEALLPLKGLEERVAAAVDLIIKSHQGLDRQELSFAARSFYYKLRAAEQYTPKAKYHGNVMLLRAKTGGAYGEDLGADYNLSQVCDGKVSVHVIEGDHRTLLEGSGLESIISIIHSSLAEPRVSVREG

Compound	inhibition at 10 µM [%]	IC50 [µM]
Cn1nccc1-c1ccc(C2=NC3(CC3)C(=O)N2CC2CCN(C(=O)C3CC3)CC2)cc1 [compound 8, 6-{[1-(Cyclopropylcarbonyl)piperidin-4-yl]methyl}-5-[4-(1-methyl-1H-pyrazol-5-yl)phenyl]-4,6-diazaspiro[2.4]hept-4-en-7-one]	5.1	> 10
Cn1nc2ccc(-c3ccc(C4=NC5(CC5)C(=O)N4C[C@@H]4CCN(C(=O)C5CC5)C4)cc3)cc2c1CO [compound 487, 6-{[(3R)-1-(Cyclopropylcarbonyl)pyrrolidin-3-yl]methyl}-5-{4-[3-(hydroxymethyl)-2-methyl-2H-indazol-5-yl]phenyl}-4,6-diazaspiro[2.4]hept-4-en-7-one]	81	1.17
Cn1ncc2cc(-c3ccc(C4=NC5(CCOC5)C(=O)N4C[C@@H]4CCN(C(=O)N5CCCC5)C4)cc3)ccc21 (stereo partly drawn) [compound 693, 2-[4-(1-Methyl-1H-indazol-5-yl)phenyl]-3-{[(3S)-1-(pyrrolidin-1-ylcarbonyl)pyrrolidin-3-yl]methyl}-7-oxa-1,3-diazaspiro[4.4]non-1-en-4-one]	48	9.77
Cn1cc(-c2ccc(-c3ccc(C4=NC5(CCOCC5)C(=O)N4C[C@@H]4CCN(C(=O)N5CCCC5)C4)cc3)cc2)cn1 [compound 660, 2-[4′-(1-Methyl-1H-pyrazol-4-yl)biphenyl-4-yl]-3-{[(3S)-1-(pyrrolidin-1-ylcarbonyl)pyrrolidin-3-yl]methyl}-8-oxa-1,3-diazaspiro[4.5]dec-1-en-4-one]	76	2.24

Continued, values first:

inhibition at 10 µM [%]	IC50 [µM]	Compound
1	> 10	Cn1cc(-c2ccc(-c3ccc(C4=NC5(CC5)C(=O)N4C[C@H]4CCCN(C(=O)C5CC5)C4)cc3)cc2)cn1 [compound 815, (S)-6-((1-(cyclopropanecarbonyl)piperidin-3-yl)methyl)-5-(4′-(1-methyl-1H-pyrazol-4-yl)-[1,1′-biphenyl]-4-yl)-4,6-diazaspiro[2.4]hept-4-en-7-one]
15	> 10	COC(=O)N1CC(CN2C(=O)C3(CCOC3)N=C2c2ccc(-c3ccc4cccnc4c3)cc2)C1 (stereo not shown) [compound 903, methyl 3-((4-oxo-2-(4-(quinolin-7-yl)phenyl)-7-oxa-1,3-diazaspiro[4.4]non-1-en-3-yl)methyl)azetidine-1-carboxylate]
82	1.58	COCCN1CCC2(CC1)N=C(c1ccc(-c3ccc4[nH]ncc4c3)cc1)N(CC1CN(C(=O)C3CC3)C1)C2=O [compound 756]
60	6.03	CC(O)C(=O)N1CC(CN2C(=O)C3(CCOC3)N=C2c2ccc(-c3ccc(-c4cnn(C)c4)cc3)cc2)C1 (stereo not shown) [compound 711, 3-{[1-(2-Hydroxypropanoyl)azetidin-3-yl]methyl}-2-[4′-(1-methyl-1H-pyrazol-4-yl)biphenyl-4-yl]-7-oxa-1,3-diazaspiro[4.4]non-1-en-4-one]
14	> 10	Cc1cc(-c2ccc3c(cnn3C)c2)ccc1C1=NC2(CC2)C(=O)N1CC1CN(C(=O)c2cccnc2)C1 [compound 805, 5-(2-methyl-4-(1-methyl-1H-indazol-5-yl)phenyl)-6-((1-nicotinoylazetidin-3-yl)methyl)-4,6-diazaspiro[2.4]hept-4-en-7-one]
-4	> 10	O=C(c1nccs1)N1CC(CN2C(=O)C3(CCOCC3)N=C2c2ccc(-c3ccc4occc4c3)cc2)C1 [compound 949, 2-(4-(benzofuran-5-yl)phenyl)-3-((1-(thiazole-2-carbonyl)azetidin-3-yl)methyl)-8-oxa-1,3-diazaspiro[4.5]dec-1-en-4-one]
67	2.95	CC(C)C(=O)N1CCC2(CC1)N=C(c1ccc(-c3ccc4[nH]ncc4c3)cc1)N(CC1CN(C(=O)C3CC3)C1)C2=O [compound 754, 3-{[1-(Cyclopropylcarbonyl)azetidin-3-yl]methyl}-2-[4-(1H-indazol-5-yl)phenyl]-8-(2-methylpropanoyl)-1,3,8-triazaspiro[4.5]dec-1-en-4-one]
